Results reported in patent US6767890B1, “Peptides having anti-cancer and anti-inflammatory activity” (priority 1998, dated 2004).
Several values for one entry are separate records, joined by “and”; a condition that tells them apart may be missing. Equal values may be shown once.

Tests used:
PLA2, Pancreatic = target: T1, PLA2, Pancreatic (Sus scrofa, UniProt P00592); test: PLA2, Pancreatic enzyme assay; format: biochemical, porcine; conditions: 300.0 μM; average of duplicate; negative = stimulation
T1 construct: porcine; from tissue; host or cells: porcine pancreas
T1 sequence (P00592 23-146): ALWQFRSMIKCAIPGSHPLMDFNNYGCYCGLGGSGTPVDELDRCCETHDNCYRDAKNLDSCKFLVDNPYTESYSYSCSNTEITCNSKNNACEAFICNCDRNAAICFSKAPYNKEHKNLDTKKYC
Experimental: The peptide was further screened in vitro in a variety of enzyme and biochemical assays. Methods employed were adapted from the scientific literature to maximize reliability and reproducibility. The primary literature reference for each assay is listed in Table 11 opposite the results for each assay.
(§1) Results presented in Table 10, “Results,” are the average of duplicate determinations, unless otherwise noted.
Reference compounds were tested concurrently at 5 concentrations as an integral part of each assay to ensure the validity of the results obtained.
Enzyme assays were performed under conditions described in Table 8, “Experimental Conditions.”. The commercial suppliers and catalog numbers of substrates employed in this study are given in Table 7, “Material Sources.” The name, commercial source, and catalog numbers of concurrent reference compounds (controls) employed in this study are given in Table 9, “Reference Compound Data.” The reaction catalyzed by each enzyme is listed in Table 8, “Experimental Conditions.”
Biochemical assay results are presented in Table 10, as the percent inhibition of specific binding or activity, and unless noted are the average of duplicate tubes tested at each concentration.

PAF-induced mortality = test: Platelet Activating Factor (PAF) Antagonism; format: in vivo, mouse; conditions: Peptide 100 mg/kg, WEB-2086 3 mg/kg
Experimental: (§2) For in vivo assay, distilled water and saline was used as vehicle in oral and intraperitoneal administration, respectively. Dosing volume was 20 ml/kg for mice or 10 ml/kg for rats.
Groups of 5 male ICR mice weighing 22±2 gms were employed. At dose of 100 mg/kg test substance dissolved in a vehicle of distilled water were administered orally. The control group received vehicle alone. At 60 minutes after dosing, the animals were injected intravenously PAF-acether ([…] IV, dissolved in 0.25% BSA). One hour later, the survival animals were recorded. The prevention of PAF-induced mortality in 50 percent or more (≧50%) of mice indicated significant activity.

Leukotriene B4 = target: T2, Leukotriene B4 (Homo sapiens, UniProt Q15722); test: Leukotriene B4 radioligand binding; conditions: 10.0 μM; specific binding of [3H]LTB4; negative = stimulation
T2 construct: human U937; endogenous in cells; host or cells: U937 cells
T2 sequence (Q15722 whole entry): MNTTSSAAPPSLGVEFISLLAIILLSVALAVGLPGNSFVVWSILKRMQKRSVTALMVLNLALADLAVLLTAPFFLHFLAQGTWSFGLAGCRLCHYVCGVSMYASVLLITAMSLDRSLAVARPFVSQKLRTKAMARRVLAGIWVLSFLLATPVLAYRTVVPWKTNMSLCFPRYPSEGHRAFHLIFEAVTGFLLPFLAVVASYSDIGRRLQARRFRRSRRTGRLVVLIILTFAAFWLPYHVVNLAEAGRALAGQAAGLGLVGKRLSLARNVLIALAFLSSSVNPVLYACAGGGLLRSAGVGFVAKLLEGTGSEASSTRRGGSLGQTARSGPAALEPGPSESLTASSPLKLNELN
Experimental: The peptide was further screened in vitro in a variety of enzyme and biochemical assays. Methods employed were adapted from the scientific literature to maximize reliability and reproducibility.
as §1
Radioligand binding assays were performed under conditions described in Table 8, “Experimental Conditions.” Radioligands employed in this study are given in Table 8, and commercial sources and catalog numbers of the radioligands are provided in Table 7, “Material Sources.” Unlabeled, blocking ligands employed this study are listed in Table 8, “Experimenal Conditions,” along with the commercial sources and catalog number of the unlabeled ligand. The concurrent reference compound (control) employed in each assay is listed in Table 9, “Reference Compound Data,” along with the commercial supplier and catalog number of the compound. Where receptors have been obtained through recombinant expression techniques, the species from which the cDNA was obtained, and the type of expression system employed (mammalian, insect, bacterial) is also given Table 7.
Maximum total binding and nonspecific binding were determined each time each assay was run. Nonspecific binding was defined as the proportion of total binding not displaced by unlabeled ligand specific for the receptor. […]

[1] = tested on: Adjuvant Induced Arthritis; test: Adjuvant Induced Arthritis Model; format: in vivo; conditions: rat, 20 mg per KG body weight orally once per day for 14 days, Day 14
Experimental: Adjuvant Induced Arthritis Model: Male Sprague-Dawley rats (160-180 g) were sensitized by injecting Fruend's Complete Adjuvant (0.5% suspension of killed mycobacterium tuberculosis (H37RA, Difco in mineral oil)). 0.05 ml was administered intradermally at a plantar site on the right hind leg of each rat. The test materials were given orally (by gavage) in 0.5% methylcelluose, at a dose level of 20 milligrams per kilo body weight, and given once per day for 14 days. The administration was started the day after sensitization. The left hind paw was measured just before sensitization and on Day 14, and the plantar edema inhibitory rate and the body weight gain rate were determined in comparison with the nonsensitized rat groups. The paw weights for each group in each test run were averaged. Activity was calculated as follows: [formula]
The Anti-inflammatory response is the difference in the mean foot volume. […] FIG. 4.

[2] = tested on: oxazolone-induced ear swelling; test: Immune Suppression, Cellular (oxazolone ear thickness); format: in vivo, mouse; conditions: IP, Peptide 100 mg/kg × 5, Cyclophosphamide 30 mg/kg × 5
Experimental: as §2
Groups of 5 ICR derived male mice weighing 22±1 gms were used. The preshaved abdominal surface was sensitized by application of oxazolone 0.1 ml of 5% solution. […] After additional four days, the animals were challenged by secondary application of oxazolone (0.025 ml of 5% solution) to the right ear. After a further 24 hours, each mouse was sacrificed and ear thickness measured with a Dyer Model micrometer gauge. A 30 percent or more (≧30%) decrease relative to the vehicle control group was considered significant and indicated possible immunosuppressant activity.

[3] = tested on: DNBS-induced distal colitis; test: Inflammation, Inflammatory Bowel Disease (DNBS distal colitis); format: in vivo, rat; conditions: PO, Peptide 30 mg/kg × 7, Sulfasalazine 300 mg/kg × 7
Experimental: as §2
Groups of 3 Sprague-Dawley derived male rats weighing 150±20 gms and fasted for 24 hours were used. Distal colitis was induced by intra-colonic instillation of DNBS (2,4-dinitrobenzene sulfonic acid, 30 mg in 0.5 ml ethanol 30%) after which air (2 ml) was gently injected through the cannula to ensure that the solution remains in the colon. Test substance was administered PO (30 mg/kg) at 24 and 2 hours before DNBS instillation. Then, the animals received test compound every 24 hours for 5 consecutive days. The control group was given vehicle alone as compound dosing pattern. The animals were sacrificed 24 hours after the final dose of test compound administration and each colon was removed and weighed. Colon-to-body weight ratio was obtained from the percentage of the comparison between the animal colon weight and body weight on the 8th day. A 30 percent or more (±30%) reduction in colon-to-body weight ratio relative to the vehicle treated control group was considered significant.

LEU-PRO-PRO-SER-ARG [Peptide]
% Inhibition (PLA2, Pancreatic): −11% | % Protection (PAF-induced mortality; PO one hour before PAF-acether 100 μg/kg IV): 0% | No. of Survival (PAF-induced mortality; of 5 mice, one hour after PAF-acether 100 μg/kg IV, PO one hour before): 0 | % Inhibition (Leukotriene B4): 8% | anti-inflammatory response (percent inhibition) [1]: 116.3% | % INH. ([2]; decrease of net ear thickness relative to vehicle control): 17% | Thickness Net, X (group mean) ([2]; group mean): 23.0 × 0.1 mm | Thickness Net ([2]; individual mouse, R. Ear minus L. Ear): 20 × 0.1 mm and 21 × 0.1 mm and 24 × 0.1 mm and 27 × 0.1 mm | Thickness R. Ear ([2]; individual mouse, challenged right ear, 24 hours after oxazolone challenge): 43 × 0.1 mm (2×) and 44 × 0.1 mm and 50 × 0.1 mm | Thickness L. Ear ([2]; individual mouse, left ear): 23 × 0.1 mm (2×) and 22 × 0.1 mm and 20 × 0.1 mm | Ratio Net ([3]; group mean minus blank-control): 0.276% | Ratio Ind., X (group mean) ([3]; group mean): 0.646% | Ratio Ind. (colon-to-body weight ratio) ([3]; individual rat, Colon (g)/8th B.W. × 100%): 0.683% and 0.608% | % INH. ([3]; reduction in colon-to-body weight ratio relative to vehicle control): 22%
